Laboratory results from the NIST ThermoML archive (doi:10.1007/s10765-006-0063-0).

How the values were obtained:
[1] = 101.33 kPa, Liquid; for speed of sound: Sing-around technique in a fixed-path interferometer
[2] = xn = mol fraction of the nth substance listed; conditions: 101 kPa, Liquid, Sing-around technique in a fixed-path interferometer

C1COCO1 [1,3-dioxolane]
[1]
Conditions	mass density [kg/m3]	speed of sound [m/s]
283.15 K	1077.1	1406.3
298.15 K	1058.8	1339.9
313.15 K	1040.2	1271.6

C1COCO1 [1,3-dioxolane] + C1CCCCC1
[2]
Conditions	speed of sound [m/s]
283.15 K, x1 = 0.1044	1322
283.15 K, x1 = 0.2011	1317.6
283.15 K, x1 = 0.3005	1315.4
283.15 K, x1 = 0.4009	1316
283.15 K, x1 = 0.4998	1319.7
283.15 K, x1 = 0.602	1327.3
283.15 K, x1 = 0.7002	1339
283.15 K, x1 = 0.7989	1355.7
283.15 K, x1 = 0.8989	1377.7
298.15 K, x1 = 0.0998	1245.1
298.15 K, x1 = 0.2014	1240
298.15 K, x1 = 0.3019	1238.7
298.15 K, x1 = 0.4043	1240.5
298.15 K, x1 = 0.4993	1245.3
298.15 K, x1 = 0.6028	1254.2
298.15 K, x1 = 0.6998	1266.9
298.15 K, x1 = 0.8003	1284.9
298.15 K, x1 = 0.8992	1308.9
313.15 K, x1 = 0.1213	1172.5
313.15 K, x1 = 0.2006	1167.6
313.15 K, x1 = 0.2996	1166.6
313.15 K, x1 = 0.3996	1168.8
313.15 K, x1 = 0.5009	1174.2
313.15 K, x1 = 0.6	1183.2
313.15 K, x1 = 0.6979	1196.3
313.15 K, x1 = 0.7987	1215.2
313.15 K, x1 = 0.8991	1240

C1COCO1 [1,3-dioxolane] + c1ccccc1
[2]
Conditions	speed of sound [m/s]
283.15 K, x1 = 0.1037	1373.9
283.15 K, x1 = 0.2005	1377.2
283.15 K, x1 = 0.2977	1380.5
283.15 K, x1 = 0.4007	1383.5
283.15 K, x1 = 0.4995	1386.6
283.15 K, x1 = 0.5967	1389.7
283.15 K, x1 = 0.6984	1393.7
283.15 K, x1 = 0.7942	1397.3
283.15 K, x1 = 0.8973	1401.7
298.15 K, x1 = 0.1	1303.1
298.15 K, x1 = 0.2022	1306.8
298.15 K, x1 = 0.3002	1310.1
298.15 K, x1 = 0.4021	1313.6
298.15 K, x1 = 0.4957	1317
298.15 K, x1 = 0.5968	1320.7
298.15 K, x1 = 0.6965	1325.1
298.15 K, x1 = 0.7985	1329.4
298.15 K, x1 = 0.8973	1334.2
313.15 K, x1 = 0.1006	1233.5
313.15 K, x1 = 0.2	1237.2
313.15 K, x1 = 0.2985	1240.9
313.15 K, x1 = 0.4136	1245.1
313.15 K, x1 = 0.4928	1248.1
313.15 K, x1 = 0.5953	1252
313.15 K, x1 = 0.6979	1256.3
313.15 K, x1 = 0.7968	1261.2
313.15 K, x1 = 0.8979	1266.3
